The subject of one test is NCI-H460. In words: Antiproliferative activity against human NCI-H460 cells assessed as cell growth inhibition by MTT assay. The class given is functional.
The next test concerns PC-3. In words: Antiproliferative activity against human PC-3 cells assessed as cell growth inhibition by MTT assay. The class given is functional. In general terms: Tetrazolium dyes change colour on reduction, which living cells bring about.

Consider `COc1ccc2c(c1)N(CC=C(C)C)C(=O)c1ccccc1N2`, for which the 50% growth inhibitory concentration (GI50) (in general, the concentration at which growth is held to half of that of the control) turned out to be 25.6 µM in the test on NCI-H460 and 5.66 µM in the test with PC-3.
`COc1cc(CN2C(=O)c3ccccc3Nc3cnc(Cl)nc32)cc(OC)c1OC`: the concentration for 50% growth inhibition (GI50) in the test with PC-3 was 8.23 µM.
On to `COc1ccc2c(c1)N(C/C=C(\C)CC/C=C(\C)CCC=C(C)C)C(=O)c1ccccc1N2`, for which the concentration for 50% growth inhibition (GI50) with NCI-H460 amounted to 34.4 µM; with PC-3 it was 11 µM.
For `CC(C)=CCC/C(C)=C/CC/C(C)=C/CN1C(=O)c2cccc(O)c2Nc2c(O)cc(O)cc21` [DIAZEPINOMICIN], the 50% growth inhibitory concentration (GI50) in the test on NCI-H460 is 13.6 µM; in the test on PC-3, 1.95 µM.
Regarding `COc1ccc2c(c1)N(Cc1ccc(OC)c(OC)c1)C(=O)c1ccccc1N2`, the values for the concentration for 50% growth inhibition (GI50) in the test with NCI-H460 and in the test on PC-3 were 44.4 µM and 12.5 µM, respectively.
Regarding `COc1ccc(CN2C(=O)c3ccccc3Nc3cnc(Cl)nc32)cc1`, the GI50 with PC-3 was found to be 6.69 µM.
Take `COc1ccc(CN2C(=O)c3ccccc3Nc3cnc(Cl)nc32)cc1OC`: the concentration for 50% growth inhibition (GI50) in the test with PC-3 worked out at 8.31 µM.
As to `COc1ccc2c(c1)N(C/C=C/c1ccccc1)C(=O)c1ccccc1N2`, the GI50 with NCI-H460 is 36.6 µM; in the test with PC-3, 7.37 µM.
In the same order, the values of `COc1ccc2c(c1)N(C/C=C(\C)CCC=C(C)C)C(=O)c1ccccc1N2` are 43.9 µM and 10.8 µM.
Taken in the same sequence, the figures for `CC(C)=CCN1C(=O)c2ccccc2Nc2cnc(Cl)nc21` were 38.1 µM and 6.12 µM.
Regarding `CC(C)=CCC/C(C)=C/CC/C(C)=C/CN1C(=O)c2ccccc2Nc2cnc(Cl)nc21`, the GI50 in the test with NCI-H460 turned out to be 19.9 µM; with PC-3, 5.94 µM.
As to `O=C1c2ccccc2Nc2cnc(Cl)nc2N1C/C=C/c1ccccc1`, the GI50 in the test on PC-3 came to 12.5 µM.
With `CC(C)=CCC/C(C)=C/CN1C(=O)c2ccccc2Nc2cnc(Cl)nc21`, the GI50 with NCI-H460 amounted to 24.3 µM; with PC-3, 7.29 µM.
Take `COc1ccc(CN2C(=O)c3ccccc3Nc3ccc(OC)cc32)cc1`: the concentration for 50% growth inhibition (GI50) with PC-3 amounted to 10.6 µM.
With `COc1ccc2c(c1)N(Cc1cc(OC)c(OC)c(OC)c1)C(=O)c1ccccc1N2`, the GI50 with NCI-H460 is 34.8 µM; with PC-3, 10.2 µM.

These data come from ChEMBL document CHEMBL5143534, “Synthesis and biological evaluation of BU-4664L derivatives as potential anticancer agents” (2022).
